Dmax, remaining activity and DC50 data for eleven molecules are collected here from patent US11566022B2, “3-(5-methoxy-1-oxoisoindolin-2-yl)piperidine-2,6-dione derivatives and uses thereof” (NOVARTIS AG, priority 2019, dated 2023).

For the test, the target named is HiBit-WIZ fusion protein (Homo sapiens, UniProt O95785+Q96SW2). The test can be described thus: Quantification of WIZ protein levels in HiBit tag fusion protein assay (WIZ HiBit assay in 293T cells). It counts as cell-based. The arrangement: Dmax: dose or concentration left out as unconfirmed. As to conditions: for Dmax / remaining activity at up to 25 µM / remaining activity: HEK-293T, 293T cells; for remaining activity at up to 25 µM: DMSO-normalized, curve-fitted percentage of WIZ-HiBit remaining at 25 uM, read-out: WIZ Amax; for DC50: WIZ HiBit assay in 293T cells, 10-point, 5-fold dose response, highest concentration 25 μM, about 18 hours, read-out: WIZ AC50; for remaining activity: read-out: WIZ Amax, DMSO-normalized, curve-fitted percentage of WIZ-HiBit remaining at 25 uM. In general terms: HiBiT is a short tag that completes a luciferase, so light tracks the accessible tagged protein.

Setting [1] is: 100 minus Amax, read-out: % degradation of WIZ (100-Amax).
Setting [2] is: read-out: % degradation of WIZ (100-Amax), 100 minus Amax.

The structures appear in SMILES notation. Read-outs that look alike come from different tables or passages of the source.

Sequence of HiBit-WIZ fusion protein (O95785 whole entry, the tested form may be a part): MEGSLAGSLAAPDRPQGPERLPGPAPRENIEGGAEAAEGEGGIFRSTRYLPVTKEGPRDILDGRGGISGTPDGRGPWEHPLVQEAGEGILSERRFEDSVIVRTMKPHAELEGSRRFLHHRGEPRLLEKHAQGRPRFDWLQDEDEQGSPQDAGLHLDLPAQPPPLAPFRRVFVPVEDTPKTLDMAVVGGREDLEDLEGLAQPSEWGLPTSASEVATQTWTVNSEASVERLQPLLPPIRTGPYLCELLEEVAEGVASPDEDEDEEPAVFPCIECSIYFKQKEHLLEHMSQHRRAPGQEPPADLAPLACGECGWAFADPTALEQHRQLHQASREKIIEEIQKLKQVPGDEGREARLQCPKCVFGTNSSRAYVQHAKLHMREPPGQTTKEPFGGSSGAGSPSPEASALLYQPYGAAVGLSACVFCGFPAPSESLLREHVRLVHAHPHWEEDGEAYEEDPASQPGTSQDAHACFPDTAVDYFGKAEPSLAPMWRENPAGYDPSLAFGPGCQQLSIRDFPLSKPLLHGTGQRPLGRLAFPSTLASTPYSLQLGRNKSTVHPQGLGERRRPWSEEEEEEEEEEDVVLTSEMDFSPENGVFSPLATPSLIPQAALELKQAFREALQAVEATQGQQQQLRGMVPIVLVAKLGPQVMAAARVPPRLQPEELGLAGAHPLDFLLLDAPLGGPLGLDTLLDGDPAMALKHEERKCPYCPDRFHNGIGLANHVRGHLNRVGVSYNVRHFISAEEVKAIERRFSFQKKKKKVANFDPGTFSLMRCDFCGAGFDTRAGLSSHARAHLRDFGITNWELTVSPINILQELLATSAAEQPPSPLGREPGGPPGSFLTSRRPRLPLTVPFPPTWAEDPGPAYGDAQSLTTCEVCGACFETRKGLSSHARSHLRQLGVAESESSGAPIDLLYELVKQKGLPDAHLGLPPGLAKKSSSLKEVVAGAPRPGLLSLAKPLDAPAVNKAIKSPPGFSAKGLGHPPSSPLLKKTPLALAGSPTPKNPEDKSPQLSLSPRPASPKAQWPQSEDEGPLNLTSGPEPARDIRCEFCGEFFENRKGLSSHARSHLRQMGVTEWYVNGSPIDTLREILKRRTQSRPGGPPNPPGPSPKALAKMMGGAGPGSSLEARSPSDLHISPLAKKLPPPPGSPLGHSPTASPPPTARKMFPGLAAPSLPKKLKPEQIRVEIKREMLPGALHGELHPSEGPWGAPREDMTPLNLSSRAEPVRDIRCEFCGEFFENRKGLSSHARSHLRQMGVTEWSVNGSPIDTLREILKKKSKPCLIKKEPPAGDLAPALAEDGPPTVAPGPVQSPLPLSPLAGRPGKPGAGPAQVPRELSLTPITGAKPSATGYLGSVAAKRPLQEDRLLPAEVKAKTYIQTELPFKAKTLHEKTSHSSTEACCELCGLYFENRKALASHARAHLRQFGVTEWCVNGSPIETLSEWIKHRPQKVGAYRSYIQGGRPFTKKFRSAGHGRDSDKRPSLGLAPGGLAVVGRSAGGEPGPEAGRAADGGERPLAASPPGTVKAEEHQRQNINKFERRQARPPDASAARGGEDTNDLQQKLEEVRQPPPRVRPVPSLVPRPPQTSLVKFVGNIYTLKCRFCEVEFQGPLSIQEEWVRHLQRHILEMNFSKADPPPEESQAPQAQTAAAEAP
Sequence of HiBit-WIZ fusion protein (Q96SW2 whole entry, the tested form may be a part): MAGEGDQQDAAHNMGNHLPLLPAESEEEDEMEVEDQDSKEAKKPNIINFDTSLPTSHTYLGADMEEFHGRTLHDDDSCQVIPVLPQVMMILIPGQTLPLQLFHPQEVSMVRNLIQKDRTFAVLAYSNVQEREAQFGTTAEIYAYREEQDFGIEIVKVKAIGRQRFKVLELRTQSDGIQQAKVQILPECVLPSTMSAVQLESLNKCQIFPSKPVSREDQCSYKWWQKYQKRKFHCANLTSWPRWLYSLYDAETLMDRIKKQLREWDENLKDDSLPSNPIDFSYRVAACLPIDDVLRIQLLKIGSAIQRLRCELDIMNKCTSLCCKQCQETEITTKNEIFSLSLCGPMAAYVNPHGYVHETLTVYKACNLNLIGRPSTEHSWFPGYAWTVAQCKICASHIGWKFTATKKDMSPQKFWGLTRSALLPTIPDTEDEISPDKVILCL
Sequence of HiBit-WIZ fusion protein (Q16531 whole entry partner, the tested form may be a part): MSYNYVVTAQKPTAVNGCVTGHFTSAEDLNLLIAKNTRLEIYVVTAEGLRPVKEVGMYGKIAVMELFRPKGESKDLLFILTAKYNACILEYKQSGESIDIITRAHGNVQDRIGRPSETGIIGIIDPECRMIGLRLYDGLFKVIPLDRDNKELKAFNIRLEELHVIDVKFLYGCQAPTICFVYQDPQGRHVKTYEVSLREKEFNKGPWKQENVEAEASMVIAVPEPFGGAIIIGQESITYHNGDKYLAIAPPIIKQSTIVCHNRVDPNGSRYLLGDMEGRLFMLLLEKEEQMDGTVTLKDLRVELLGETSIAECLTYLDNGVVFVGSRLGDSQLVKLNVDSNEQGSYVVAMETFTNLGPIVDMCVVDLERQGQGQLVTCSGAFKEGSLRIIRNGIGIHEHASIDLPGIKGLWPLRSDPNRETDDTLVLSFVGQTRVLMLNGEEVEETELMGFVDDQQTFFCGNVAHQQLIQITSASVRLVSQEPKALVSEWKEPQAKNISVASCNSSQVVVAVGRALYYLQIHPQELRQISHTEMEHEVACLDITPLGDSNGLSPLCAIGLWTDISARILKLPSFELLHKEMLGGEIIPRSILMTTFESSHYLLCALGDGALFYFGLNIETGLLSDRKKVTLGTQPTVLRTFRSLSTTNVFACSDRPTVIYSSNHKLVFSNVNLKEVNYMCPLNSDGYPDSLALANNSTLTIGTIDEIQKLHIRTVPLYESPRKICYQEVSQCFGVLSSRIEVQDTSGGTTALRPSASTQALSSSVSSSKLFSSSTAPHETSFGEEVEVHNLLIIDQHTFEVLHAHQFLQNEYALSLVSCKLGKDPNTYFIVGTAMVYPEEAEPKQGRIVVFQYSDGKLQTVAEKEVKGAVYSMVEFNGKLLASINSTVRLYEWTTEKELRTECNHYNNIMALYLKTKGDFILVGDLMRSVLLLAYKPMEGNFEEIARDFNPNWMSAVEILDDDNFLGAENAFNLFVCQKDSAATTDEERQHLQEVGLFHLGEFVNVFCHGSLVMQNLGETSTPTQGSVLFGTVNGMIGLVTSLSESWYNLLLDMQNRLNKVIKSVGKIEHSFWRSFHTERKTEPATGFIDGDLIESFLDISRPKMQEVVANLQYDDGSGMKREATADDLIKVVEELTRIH

With `CCN1CCC(c2ccccc2CN2CCCC[C@@H]2COc2ccc3c(c2)CN(C2CCC(=O)NC2=O)C3=O)CC1` (stereo partly drawn) [Compound I-124, 3-(5-(((R)-1-(2-(1-ethylpiperidin-4-yl)benzyl)piperidin-2-yl)methoxy)-1-oxoisoindolin-2-yl)piperidine-2,6-dione], the remaining activity at up to 25 µM amounted to 5.61% and the DC50 turned out to be 40 nM. Under setting [1], the Dmax was 94.4%.

In the case of `CC(C)(C)OC(=O)N1CCC(c2ccc(CN3CCCC[C@@H]3COc3ccc4c(c3)CN(C3CCC(=O)NC3=O)C4=O)cc2)CC1` (stereo partly drawn) [Compound I-127, Tert-butyl 4-(4-(((2R)-2-(((2-(2,6-dioxopiperidin-3-yl)-1-oxoisoindolin-5-yl)oxy)methyl)piperidin-1-yl)methyl)phenyl)piperidine-1-carboxylate], the remaining activity at up to 25 µM came out at 6.64% and the DC50 amounted to 1.9 nM. Also, under setting [1], the Dmax worked out at 93.4%.

On to `CCN1CCC(c2ccc(CN3CCCC[C@@H]3COc3ccc4c(c3)CN(C3CCC(=O)NC3=O)C4=O)cc2)CC1` (stereo partly drawn) [Compound I-129, 3-(5-(((R)-1-(4-(1-ethylpiperidin-4-yl)benzyl)piperidin-2-yl)methoxy)-1-oxoisoindolin-2-yl)piperidine-2,6-dione], for which the remaining activity came out at 32.3% and the DC50 was 46 nM. Further, the Dmax under setting [2] was found to be 67.7%.

Take `COc1ccc(CN2CCCC[C@@H]2COc2ccc3c(c2)CN(C2CCC(=O)NC2=O)C3=O)c(OC)c1` (stereo partly drawn) [Compound I-131, 3-(5-(((R)-1-(2,4-dimethoxybenzyl)piperidin-2-yl)methoxy)-1-oxoisoindolin-2-yl)piperidine-2,6-dione]: the remaining activity at up to 25 µM is 11.1% and the DC50 stood at 0.52 nM. For the same molecule, the Dmax under setting [1] came to 88.9%.

Consider `COc1ccccc1CN1CCCC[C@@H]1COc1ccc2c(c1)CN(C1CCC(=O)NC1=O)C2=O` (stereo partly drawn) [Compound I-133, 3-(5-(((R)-1-(2-methoxybenzyl)piperidin-2-yl)methoxy)-1-oxoisoindolin-2-yl)piperidine-2,6-dione], for which the remaining activity stood at 16.7% and the DC50 is 8.8 nM. For the same molecule, the Dmax under setting [2] was 83.3%.

For `O=C1CCC(N2Cc3cc(OC[C@H]4CCCCN4Cc4cccc5c4OCCO5)ccc3C2=O)C(=O)N1` (stereo partly drawn) [Compound I-135, 3-(5-(((R)-1-((2,3-dihydrobenzo[b][1,4]dioxin-5-yl)methyl)piperidin-2-yl)methoxy)-1-oxoisoindolin-2-yl)piperidine-2,6-dione], the remaining activity at up to 25 µM worked out at 18.2% and the DC50 was found to be 34 nM. For the same molecule, under setting [1], the Dmax was 81.8%.

For `O=C1CCC(N2Cc3cc(OC[C@H]4CCCCN4Cc4ccc5c(c4)OCO5)ccc3C2=O)C(=O)N1` (stereo partly drawn) [Compound I-137, 3-(5-(((R)-1-(benzo[d][1,3]dioxol-5-ylmethyl)piperidin-2-yl)methoxy)-1-oxoisoindolin-2-yl)piperidine-2,6-dione], the remaining activity amounted to 10% and the DC50 came to 1.5 nM. Further, the Dmax under setting [2] was determined as 90%.

Consider `O=C1CCC(N2Cc3cc(OC[C@H]4CCCCN4Cc4cccc(F)c4O)ccc3C2=O)C(=O)N1` (some centres unmarked) [Compound I-143], for which the remaining activity at up to 25 µM is 62.6%. For the same molecule, under setting [1], the Dmax amounted to 37.4%.

For the molecule `O=C1CCC(N2Cc3cc(OC[C@H]4CCCCN4Cc4cc(F)c(F)c(F)c4)ccc3C2=O)C(=O)N1` (some centres unmarked) [Compound I-144], the remaining activity at up to 25 µM was found to be 6.3% and the DC50 is 76 nM. Besides, the Dmax under setting [1] turned out to be 93.7%.

`Cc1nc(C)c(CN2CCCC[C@@H]2COc2ccc3c(c2)CN(C2CCC(=O)NC2=O)C3=O)s1` (some centres unmarked) [Compound I-145]: the remaining activity at up to 25 µM is 2.68% and the DC50 stood at 19 nM. Moreover, the Dmax under setting [1] is 97.3%.

Take `O=C1CCC(N2Cc3cc(OC[C@H]4CCCCN4Cc4ccncc4)ccc3C2=O)C(=O)N1` (some centres unmarked) [Compound I-146]: the remaining activity at up to 25 µM was 31.3% and the DC50 is 2200 nM. Under setting [1], the Dmax stood at 68.7%.
